Assay results: patent US10864261B2, “Synthetic vaccines against Streptococcus pneumoniae serotype 2” (Max-Planck-Gesellschaft zur Förderung der Wissenschaften …, priority 2015, dated 2020)

System: synthetic oligosaccharides and native S. pneumoniae serotype 2 capsular polysaccharides printed on slides
Details: mice s.c., pooled sera
Experimental: On day 14 and 28 mice were received a booster injection with the same amount of antigen emulsified with 1:1 (v/v) alum. […] Mice were bled submandibular weekly using sterile single-use blood lancet. Control mice received only PBS and PBS in alum. The antibody responses were measured in both sera by glycan microarray and ELISA.
Preparation of microarrays slides: The CodeLink NHS activated glass slides (Surmodics) were spotted with synthetic glycans and native polysaccharides at two different concentration (100 μM and 200 μM) in printing buffer (50 mM sodium phosphate, pH 8.5) by using a S3 piezoelectric microarray printer (Scienion) equipped with a type 4 coated nozzle. The relative humidity of spotted chamber was constantly maintained at 65%. The spotted slides were incubated over night at room temperature in a humidifying chamber. […]
Microarray binding assays: The printed slides were blocked with PBS-BSA (1%) for 1 h at room temperature and washed 3 times with PBS. […] Slides were incubated with a fluorescence-labeled goat anti-mouse secondary antibodies (Life Technologies) diluted in 1% BSA in PBS (w/v) in a humid chamber for 1 h at room temperature, washed three times with PBST, rinsed once with deionized water and dried by centrifugation (300×g, 5 min) prior to scanning with a GenePix 4300A microarray scanner (Molecular Devices, Sunnyvale, Calif., USA). […]

## C[C@@H]1O[C@H](O[C@H]2[C@H](O)[C@@H](O)[C@H](O[C@@H]3[C@@H](O)[C@H](C)O[C@@H](O[C@@H]4[C@@H](O)[C@H](C)O[C@@H](OCCCCCN)[C@@H]4O)[C@@H]3O[C@H]3O[C@H](CO[C@H]4O[C@H](C(=O)O)[C@@H](O)[C@H](O)[C@H]4O)[C@@H](O)[C@H](O)[C@H]3O)O[C@@H]2CO)[C@H](O)[C@H](O)[C@H]1O [hexasaccharide 2, 5-amino pentyl β-L-rhamnopyranosyl-(1→4)-β-D-glucopyranosyl-(1→3)-α-L-{α-D-glucopyranosyl uronate-(1→6)-α-D-glucopyranosyl-(1→2)}rhamnopyranosyl-(1→3)-α-L-rhamnopyranoside]
3 μg sugar per dose with alum 1:1, boosts day 14 and 28, anti-mouse IgG
  antibody response specific to hexasaccharide 2 / core glycan structures (immunogenicity): immunogenic in mice
3 μg sugar per dose with alum 1:1
  cross-reactivity of raised antibodies with other fragments of hexasaccharide 2 printed on the slides: induces cross-reactive antibodies
